The values below come from article PMC12692036, “Multi-Target Screening of Anti-Diabetic and Antioxidant Potential Bioactive Constituents from Dandelion” (Foods, 2025).

Test [1] addresses T1, α-amylase (Sus scrofa, UniProt P00690).
T1 construct: purchased Adamas-beta Reagents Co., Ltd. (Shanghai, China); host or cells: porcine pancreas
T1 sequence (P00690 16-511): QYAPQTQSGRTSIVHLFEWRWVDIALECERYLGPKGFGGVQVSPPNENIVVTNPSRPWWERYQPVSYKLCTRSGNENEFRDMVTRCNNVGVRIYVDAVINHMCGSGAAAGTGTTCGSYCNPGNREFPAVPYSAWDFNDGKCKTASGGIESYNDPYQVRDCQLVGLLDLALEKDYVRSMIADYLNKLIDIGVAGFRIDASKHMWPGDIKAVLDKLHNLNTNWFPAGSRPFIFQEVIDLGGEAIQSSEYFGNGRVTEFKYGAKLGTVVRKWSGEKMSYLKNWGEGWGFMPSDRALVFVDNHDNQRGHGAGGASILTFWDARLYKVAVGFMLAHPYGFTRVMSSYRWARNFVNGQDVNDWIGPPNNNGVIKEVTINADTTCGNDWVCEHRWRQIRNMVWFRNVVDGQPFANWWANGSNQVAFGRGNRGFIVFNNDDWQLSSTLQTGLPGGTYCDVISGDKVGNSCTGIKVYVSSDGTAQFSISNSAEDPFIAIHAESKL
Description: α-Amylase inhibitory activity (DNS method). Format: biochemical, porcine. The following applies: mean ± SD, n = 3. How it is done:
α-Amylase inhibitory activity was examined based on a modified method described previously. Firstly, 200 µL of sample test solution and 100 µL of 1 U·mL^−1 α-amylase solution were transferred into 5 mL centrifuge tube, and incubated in a 37 °C constant temperature water bath for 10 min. Secondly, 200 µL of 1% starch solution was added and incubated in a 37 °C constant temperature water bath for 5 min. Thirdly, 500 µL of DNS reagent was prepared, added, immersed and reacted in boiling water for 5 min [7]. Subsequently, the reaction solution was removed from boiling water and cooled for 10 min. Finally, 200 µL of the reaction solution was transferred into a 96-well microplate, and measured its absorbance value at a wavelength of 540 nm by ReadMax1200 microplate reader. Each experiment was conducted in triplicate.

Test [2] in a line: DPPH radical scavenging capacity. The note with it: mean ± SD, n = 3. How it is done:
This method had been slightly modified according to the literature. Firstly, 10 μL of sample test solution and 190 μL of 0.1 mmol·L^−1 DPPH working solution were added to a 96-well microplate, shaken well, and reacted in the dark for 30 min. The absorbance at 517 nm was measured by ReadMax1200 microplate reader. The positive control was Trolox and Vc, and the blank control was anhydrous ethanol, with each experiment conducted in triplicate. The standard curve was plotted to obtain the linear regression equation. […] The TEAC values were calculated from the standard curve of Trolox and expressed as millimoles of Trolox equivalents per gram of sample (mmol TE/g).

Test [3] can be described thus: ABTS radical scavenging capacity. The following applies: mean ± SD, n = 3. The method, then:
This method had been slightly modified according to the literature. Firstly, 1.32 mg·mL^−1 potassium persulfate and 3.84 mg·mL^−1 ABTS^+• were mixed in a volume ratio of 1:1 to obtain the ABTS^+• mother liquor. The ABTS^+• mother liquor was stored in a dark environment for 12–16 h, diluted with ethanol, and adjusted to an absorbance range of 0.695 ± 0.705 at 734 nm to obtain an ABTS^+• working solution. Secondly, 100 μL of sample test solution and 190 μL ABTS^+• working solution were added to a 96-well microplate, shaken well, and reacted in the dark for 30 min. Finally, the absorbance at 734 nm was measured by ReadMax1200 microplate reader. The positive control was Trolox and Vc, and the blank control was anhydrous ethanol, with each experiment conducted in triplicate. The ABTS radical scavenging capacities were also expressed as IC50 and TEAC values, calculating according to Section 2.6.1. The standard curve was plotted to obtain the linear regression equation. The ABTS RCR was calculated as follows: (3) ABTS RCR=AABTS−ASample/AABTS×100% where AABTS and ASample were the absorbance values of blank control and sample, respectively.

Test [4] is described as follows: FRAP iron ion reduction capacity. The note with it: mean ± SD, n = 3. How it is done: This method had been slightly modified according to the literature. Firstly, 40 mmol·L^−1 HCl, 100 mmol·L^−1 FeSO4, 20 mmol·L^−1 FeCl3, 0.3 mol·L^−1 acetic acid sodium acetate buffer, and 10 mmol·L^−1 TPTZ were carefully prepared, respectively. Secondly, the TPTZ working solution was prepared by mixing 20 mmol·L^−1 FeCl3, 0.3 mol·L^−1 acetic acid sodium acetate buffer, and 10 mmol·L^−1 TPTZ in a volume ratio of 1:10:1. Thirdly, 100 μL of sample test solution and 190 μL TPTZ working solution were added to a 96-well microplate, shaken well, and reacted at room temperature for 10 min. Finally, the absorbance at 593 nm was measured by ReadMax1200 microplate reader. The positive control was Trolox and Vc, and the blank control was anhydrous ethanol, with each experiment conducted in triplicate. The FRAP assay results were quantified by extrapolating the absorbance values to the ferrous sulfate standard curve, with the antioxidant capacity expressed as millimolar ferrous ion equivalents per gram of dry sample weight (mmol Fe^2+·g^−1). The FRAP iron ion reduction capacities were also expressed as TEAC values, calculated according to Section 2.6.1.

The target of test [5] is T1, α-amylase. In words: Affinity ultrafiltration MTAUF-UPLC-MS/MS of DE with α-amylase. Format: binding, porcine. The following applies: peak area with active / inactivated enzyme; DE 5.0 mg·mL^−1. How it is done:
(§1) Based on hypoglycemic inhibitory activities, potential inhibitors in the DE extract were screened using the MTAUF-UPLC-MS/MS method, as previously described. Firstly, α-amylase or α-glucosidase enzymes were inactivated by heating in boiling water for 20 min. Secondly, 100 µL of DE sample (5.0 mg·mL^−1 in PBS, pH = 6.8), 20 µL of either 2 U·mL^−1 active or inactivated enzyme, and 190 µL PBS were mixed, shaken well, and incubated at 37 °C for 60 min. […] This step was repeated 3 times. […] This step was also repeated 3 times. The resulting solution was dried and reconstituted in 50 µL methanol for further UPLC-QTOF-MS/MS analysis.

The test system of test [6] is α-glucosidase. In words: Affinity ultrafiltration MTAUF-UPLC-MS/MS of DE with α-glucosidase. Format: binding, Saccharomyces cerevisiae. The note with it: peak area with active / inactivated enzyme; DE 5.0 mg·mL^−1. The method, then:
as §1

Test [7] concerns the target α-glucosidase. Description: α-Glucosidase inhibitory activity (pNPG). The format is biochemical, Saccharomyces cerevisiae. The note with it: mean ± SD, n = 3. The method, then:
α-Glucosidase inhibitory activity was examined based on a modified method described previously. […] Then, 40 μL of 5 mmol·L^−1 pNPG was added, and the reaction was for an additional 15 min. Finally, 80 μL of 1 mol·L^−1 sodium carbonate was added to terminate the reaction, and measured its absorbance value at a wavelength of 405 nm by ReadMax1200 microplate reader (Shanpu, Shanghai, China). Each experiment was conducted in triplicate. […] The IR was calculated according to Equation (1) in Section 2.5.1.

For the molecule `O=c1c(O)c(-c2ccc(O)cc2)oc2cc(O)cc(O)c12` [Compound 15, kaempferol], at α-amylase [1], the IC50 was 99.5 µM. Besides, in test [2], the “DPPH radical scavenging capacity IC50” value came to 5.18 ± 0.02 µg/mL. For the same molecule, the “ABTS radical scavenging capacity IC50” value in test [3] turned out to be 3.93 ± 0.04 µg/mL. The “iron ion reducing capacity, equivalent concentration of ferrous ions (FRAP)” value (shortened to “iron ion reducing capacity”) in test [4] is given as 57.56 ± 1.33 mmol Fe^2+·g^−1.
With `O=C(O)c1ccc(O)cc1` [Compound 3, 4-hydroxybenzoic acid], the “relative binding affinity (RBA) toward α-amylase” value on α-amylase [5] is “less than 1”. Further, the “relative binding affinity (RBA) toward α-glucosidase” value in the test with α-glucosidase [6] is 2.47 ± 0.07.
As for `COc1ccc(C=CC(=O)O)cc1OC` [Compound 6, 3,4-dimethoxy cinnamic acid], at α-amylase [5], the “relative binding affinity (RBA) toward α-amylase” value was 1.05 ± 0.02. Further, the “relative binding affinity (RBA) toward α-glucosidase” value in the test with α-glucosidase [6] was “less than 1”.
Taken in the same sequence, the figures for `C=C1CC[C@]2(C)CC[C@]3(C)[C@H](CC[C@@H]4[C@@]5(C)CC[C@H](O)C(C)(C)[C@@H]5CC[C@]43C)[C@H]2[C@@H]1C` [Compound 48, taraxasterol] were “less than 1” and 1.46 ± 0.09.
Take `O=c1c(O)c(-c2ccc(O)c(O)c2)oc2cc(O)cc(O)c12` [Compound 8, quercetin]: the “DPPH radical scavenging capacity IC50” value in test [2] is 4.23 ± 0.04 µg/mL. Moreover, the “ABTS radical scavenging capacity IC50” value in test [3] stood at 2.12 ± 0.02 µg/mL. In addition, the “iron ion reducing capacity” value in test [4] is listed as 56.40 ± 1.81 mmol Fe^2+·g^−1.
With `COc1cc(O)c2c(=O)cc(-c3ccc(O)cc3)oc2c1` [Compound 27, genkwanin], at α-amylase [5], the “relative binding affinity (RBA) toward α-amylase” value is reported as 2.13 ± 0.07. Further, the “relative binding affinity (RBA) toward α-glucosidase” value in the test with α-glucosidase [6] turned out to be 2.09 ± 0.06.
With `O=c1cc(-c2ccc(O)cc2)oc2cc(O)cc(O)c12` [Compound 14, apigenin], the “IC50 of α-glucosidase inhibitory activity” value at α-glucosidase [7] was determined as 35.99 ± 0.42 µg/mL. Besides, the “relative binding affinity (RBA) toward α-amylase” value at α-amylase [5] came out at 1.48 ± 0.03. Also, the “relative binding affinity (RBA) toward α-glucosidase” value in the test with α-glucosidase [6] is given as 1.54 ± 0.03.
On to `O=C(/C=C/c1ccc(O)c(O)c1)O[C@H]1[C@H](O)C[C@](O)(C(=O)O)C[C@H]1OC(=O)/C=C/c1ccc(O)c(O)c1` [Compound 2, isochlorogenic acid C], for which the “IC50 of α-amylase inhibitory activity” value against α-amylase [1] came to 254.00 ± 0.78 µg/mL. Besides, the “IC50 of α-glucosidase inhibitory activity” value on α-glucosidase [7] is 84.84 ± 4.31 µg/mL. For the same molecule, the “DPPH radical scavenging capacity IC50” value in test [2] was found to be 5.55 ± 0.02 µg/mL. In addition, in test [3], the “ABTS radical scavenging capacity IC50” value was found to be 3.01 ± 0.03 µg/mL. For the same molecule, in test [4], the “iron ion reducing capacity” value was 107.35 ± 3.42 mmol Fe^2+·g^−1. In addition, at α-amylase [5], the “relative binding affinity (RBA) toward α-amylase” value is 1.71 ± 0.07. For the same molecule, in the test with α-glucosidase [6], the “relative binding affinity (RBA) toward α-glucosidase” value is recorded as “less than 1”.
Consider `COc1cc(-c2cc(=O)c3c(O)cc(O)cc3o2)cc(OC)c1O` [Compound 18, tricin], for which the “relative binding affinity (RBA) toward α-amylase” value at α-amylase [5] was “less than 1”.
For the molecule `O=c1cc(-c2ccc(O)c(O)c2)oc2cc(O)cc(O)c12` [Compound 7, luteolin], the “DPPH radical scavenging capacity IC50” value in test [2] is 1.96 ± 0.05 µg/mL. The “ABTS radical scavenging capacity IC50” value in test [3] amounted to 2.47 ± 0.05 µg/mL. Also, the “relative binding affinity (RBA) toward α-amylase” value at α-amylase [5] is 1.83 ± 0.07. In addition, the “relative binding affinity (RBA) toward α-glucosidase” value with α-glucosidase [6] is “less than 1”.
For the molecule `O=c1cc(-c2ccccc2)oc2cc(O)cc(O)c12` [Compound 24, chrysin], the “relative binding affinity (RBA) toward α-amylase” value at α-amylase [5] is reported as 1.66 ± 0.08. In addition, the “relative binding affinity (RBA) toward α-glucosidase” value with α-glucosidase [6] was determined as 1.64 ± 0.05.
On to `COc1cc(/C=C/C(=O)O)ccc1O` [Compound 5, ferulic acid], for which, in test [2], the “DPPH radical scavenging capacity IC50” value came to 6.11 ± 0.06 µg/mL. In test [3], the “ABTS radical scavenging capacity IC50” value came out at 1.20 ± 0.00 µg/mL. Also, the “relative binding affinity (RBA) toward α-amylase” value at α-amylase [5] turned out to be 1.08 ± 0.05. Besides, the “relative binding affinity (RBA) toward α-glucosidase” value in the test on α-glucosidase [6] came out at 1.35 ± 0.05.
`COc1cc(-c2cc(=O)c3c(O)cc(O)cc3o2)cc(OC)c1O[C@H](CO)[C@@H](O)c1ccc(O)cc1` [Compound 17, calquiquelignan D]: at α-amylase [5], the “relative binding affinity (RBA) toward α-amylase” value was “less than 1”.
On to `O=c1c(-c2ccc(O)cc2)coc2cc(O)cc(O)c12` [Compound 13, genistein], for which, in test [3], the “ABTS radical scavenging capacity IC50” value was found to be 18.26 ± 0.52 µg/mL. Also, at α-amylase [5], the “relative binding affinity (RBA) toward α-amylase” value is given as 1.15 ± 0.09. For the same molecule, in the test on α-glucosidase [6], the “relative binding affinity (RBA) toward α-glucosidase” value turned out to be 1.60 ± 0.03.
On to `O=C1C[C@@H](c2ccccc2)Oc2cc(O)cc(O)c21` [Compound 25, pinocembrin], for which the “relative binding affinity (RBA) toward α-amylase” value on α-amylase [5] was 1.53 ± 0.06. Further, the “relative binding affinity (RBA) toward α-glucosidase” value in the test with α-glucosidase [6] is on record as 1.11 ± 0.03.
